Experimental data reported in PMC7955776 (Investigational new drugs, 2020).
“And” between values parts separate entries of the source, which are not always exact repeats. Identical values can stand only once. Marks after values point to notes of the source that are not given here.

Tests used:
[1] = RO4929097 plasma pharmacokinetics; type: in vivo, human; conditions: for AUC(0-inf) / Cmax / half-life / Vd/F: human, plasma, oral; for Vd/F: Vz/F
[2] = Phase I 3 + 3 dose escalation: DLT and MTD; conditions: human, in vivo
[3] = ECG monitoring during cycle 1; type: in vivo, human; conditions: 10 patients, cycle 1, before and after dosing on days 1 and 17
stage II-III TNBC = assay: Clinico-pathological response to neoadjuvant treatment; type: in vivo, human
[4] = Safety: adverse events graded by CTCAE v4.0; type: in vivo, human; conditions: with paclitaxel and carboplatin
[5] = 20 mg dose, Cycle 1 Day 15, N = 3, mean ± SD
[6] = 10 mg, 10 mg dose, Cycle 1 Day 1, N = 8, mean ± SD
[7] = 10 mg, 10 mg dose, Cycle 1 Day 15, N = 7, mean ± SD
[8] = 10 mg, 10 mg dose, Cycle 1 Day 17, N = 6, mean ± SD
[9] = 20 mg, 20 mg dose, Cycle 1 Day 1, N = 4, mean ± SD
[10] = 20 mg, 20 mg dose, Cycle 1 Day 15, N = 3, mean ± SD
[11] = 20 mg, 20 mg dose, Cycle 1 Day 17, N = 2, mean ± SD

SMILES: CC(C)(C(=O)NCC(F)(F)C(F)(F)F)C(=O)N[C@@H]1C(=O)Nc2ccccc2-c2ccccc21 [RO4929097]
- CL/F ([1]; 10 mg dose, Cycle 1 Day 1, N = 8, mean ± SD): 3.21 ± 0.84 L/h
- CL/F ([1]; 10 mg dose, Cycle 1 Day 15, N = 7, mean ± SD): 2.70 ± 1.07 L/h
- CL/F ([1]; 10 mg dose, Cycle 1 Day 17, N = 6, mean ± SD): 1.97 ± 1.12 L/h
- CL/F ([1]; 20 mg dose, Cycle 1 Day 1, N = 4, mean ± SD): 3.87 ± 1.09 L/h
- CL/F [1, 5]: 3.90 ± 2.20 L/h
- Half life [1, 5]: 36.0 ± 31.7 h
- CL/F ([1]; 20 mg dose, Cycle 1 Day 17, N = 2, mean ± SD): 2.47 ± 2.55 L/h
- Exposure on day 15 compared to day 1 ([1]; cycle 1): 125%
- AUC (exposure) on day 17 compared to day 1 ([1]; cycle 1, both dose levels): 220%
- Cmax on day 17 compared to day 1 ([1]; cycle 1, both dose levels): 158%
- AUC(0-inf) [1, 6]: 3280 ± 749 ng·h/mL
- AUC(0-inf) [1, 7]: 4120 ± 2140 ng·h/mL
- AUC(0-inf) [1, 8]: 6210 ± 2610 ng·h/mL
- Cmax [1, 6]: 203 ± 92.7 ng/mL
- Cmax [1, 7]: 177 ± 93.6 ng/mL
- Cmax [1, 8]: 259 ± 113 ng/mL
- half-life [1, 6]: 14.7 ± 2.2 h
- half-life [1, 7]: 20.1 ± 11.2 h
- half-life [1, 8]: 20.6 ± 7 h
- Vd/F [1, 7]: 76.8 ± 46.8 L
- Vd/F [1, 8]: 55.6 ± 25.4 L
- AUC(0-inf) [1, 9]: 5520 ± 1680 ng·h/mL
- AUC(0-inf) [1, 10]: 6730 ± 4230 ng·h/mL
- AUC(0-inf) [1, 11]: 17400 ng·h/mL
- Cmax [1, 9]: 324 ± 116 ng/mL
- Cmax [1, 10]: 234 ± 25 ng/mL
- Cmax [1, 11]: 422 ± 42.6 ng/mL
- half-life [1, 9]: 22.8 ± 12.4 h
- half-life [1, 11]: 39.3 ± 39.9 h
- Vd/F [1, 9]: 115 ± 38.6 L
- Vd/F [1, 10]: 139 ± 37.5 L
- Vd/F [1, 11]: 66.3 ± 2.4 L
- DLTs observed, all dose levels [2]: 2
- QTc prolongation or other clinically significant ECG changes [3]: No QTc prolongation or other clinically significant ECG changes were observed
- pCR, patients (stage II-III TNBC; 5 of 14 patients, with paclitaxel and carboplatin): 36%
- Patients with residual disease in the breast and lymph nodes (stage II-III TNBC; 5 patients, with paclitaxel and carboplatin): 36%
- Overall response rate (stage II-III TNBC; 9 of 14 patients who completed chemotherapy (1 never received RO4929097)): 64%
- Complete pathologic response (stage II-III TNBC; neoadjuvant, with paclitaxel and carboplatin, N = 14): 5 (36) N (%)
- Residual disease (stage II-III TNBC; neoadjuvant, with paclitaxel and carboplatin, N = 14, one patient did not receive RO4929097): 9 (64)^a,b N (%)
- SAE: depression ([4]; N = 1): 7%
- SAE: glucose intolerance ([4]; N = 1): 7%
- SAE: hyperglycemia ([4]; N = 1): 7%
- SAE: leukopenia ([4]; N = 1): 7%
- SAE: neutropenia ([4]; N = 1): 7%
- SAE: thrombocytopenia ([4]; N = 1): 7%
- SAE: wound dehiscence ([4]; N = 1): 7%
- SAE: wound infection ([4]; N = 1): 7%
- SAE: hypertension ([4]; N = 3): 21%
- Serious adverse events (SAEs) reported, number ([4]; duration of study): Eleven
- Alopecia, All Grades ([4]; treatment-related AE, N = 14): 9 (64) N (%)
- Alopecia, Grade 1 ([4]; treatment-related AE, N = 14): 3 (21) N (%)
- Alopecia, Grade 2 ([4]; treatment-related AE, N = 14): 6 (43) N (%)
- Alopecia, Grade 3 ([4]; treatment-related AE, N = 14): 0 (0) N (%)
- Alopecia, Grade 4 ([4]; treatment-related AE, N = 14): 0 (0) N (%)
- Anemia, All Grades ([4]; treatment-related AE, N = 14): 12 (86) N (%)
- Anemia, Grade 1 ([4]; treatment-related AE, N = 14): 0 (0) N (%)
- Anemia, Grade 2 ([4]; treatment-related AE, N = 14): 8 (57) N (%)
- Anemia, Grade 3 ([4]; treatment-related AE, N = 14): 4 (29%) N (%) and 4 (29) N (%)
- Anemia, Grade 4 ([4]; treatment-related AE, N = 14): 0 (0) N (%)
- Anorexia, All Grades ([4]; treatment-related AE, N = 14): 9 (64) N (%)
- Anorexia, Grade 1 ([4]; treatment-related AE, N = 14): 8 (57) N (%)
- Anorexia, Grade 2 ([4]; treatment-related AE, N = 14): 1 (7) N (%)
- Anorexia, Grade 3 ([4]; treatment-related AE, N = 14): 0 (0) N (%)
- Anorexia, Grade 4 ([4]; treatment-related AE, N = 14): 0 (0) N (%)
- Constipation, All Grades ([4]; treatment-related AE, N = 14): 10 (71) N (%)
- Constipation, Grade 1 ([4]; treatment-related AE, N = 14): 10 (71) N (%)
- Constipation, Grade 2 ([4]; treatment-related AE, N = 14): 0 (0) N (%)
- Constipation, Grade 3 ([4]; treatment-related AE, N = 14): 0 (0) N (%)
- Constipation, Grade 4 ([4]; treatment-related AE, N = 14): 0 (0) N (%)
- Dyspnea, All Grades ([4]; treatment-related AE, N = 14): 10 (71) N (%)
- Dyspnea, Grade 1 ([4]; treatment-related AE, N = 14): 7 (50) N (%)
